Assay results reported in ChEMBL document CHEMBL2417374, “Resistance by allostery: a novel perspective for eg5-targeted drug design” (J Med Chem, 2013).
Active and inactive are the calls of the source. The rule behind the calls is not given here.

Test system: T1, Kinesin-like protein KIF11 (Homo sapiens), P52732 [D130V,A133D]
T1 sequence (whole entry): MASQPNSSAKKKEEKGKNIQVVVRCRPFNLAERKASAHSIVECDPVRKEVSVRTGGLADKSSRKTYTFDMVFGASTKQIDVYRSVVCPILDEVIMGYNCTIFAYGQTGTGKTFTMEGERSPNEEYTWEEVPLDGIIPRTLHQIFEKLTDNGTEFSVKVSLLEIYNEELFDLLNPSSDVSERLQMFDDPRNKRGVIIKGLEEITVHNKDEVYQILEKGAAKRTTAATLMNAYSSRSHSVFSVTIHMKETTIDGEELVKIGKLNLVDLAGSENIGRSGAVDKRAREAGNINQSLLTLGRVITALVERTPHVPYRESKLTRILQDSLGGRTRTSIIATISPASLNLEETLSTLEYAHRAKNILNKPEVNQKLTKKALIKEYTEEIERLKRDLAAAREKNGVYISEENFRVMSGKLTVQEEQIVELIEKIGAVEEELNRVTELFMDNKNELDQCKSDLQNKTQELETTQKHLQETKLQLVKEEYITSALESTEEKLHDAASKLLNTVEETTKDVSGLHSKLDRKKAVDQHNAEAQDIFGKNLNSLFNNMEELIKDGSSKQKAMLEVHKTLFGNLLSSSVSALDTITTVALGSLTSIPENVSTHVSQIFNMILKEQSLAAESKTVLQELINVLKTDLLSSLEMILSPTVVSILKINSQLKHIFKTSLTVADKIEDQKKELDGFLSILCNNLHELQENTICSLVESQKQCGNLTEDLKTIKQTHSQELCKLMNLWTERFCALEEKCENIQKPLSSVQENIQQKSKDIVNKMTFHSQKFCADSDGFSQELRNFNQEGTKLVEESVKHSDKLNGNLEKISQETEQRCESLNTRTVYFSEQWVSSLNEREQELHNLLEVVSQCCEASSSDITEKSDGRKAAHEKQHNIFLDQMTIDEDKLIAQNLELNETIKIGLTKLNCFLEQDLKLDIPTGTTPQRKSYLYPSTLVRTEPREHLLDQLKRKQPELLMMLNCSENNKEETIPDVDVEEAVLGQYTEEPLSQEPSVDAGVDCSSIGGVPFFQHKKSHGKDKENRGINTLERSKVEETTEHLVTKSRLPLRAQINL
Test: Partial inhibition of MT-stimulated ATPase activity of Eg5 D130V/A133D (unknown origin)

## Cc1ccc(C(=O)N(CCCN)[C@@H](c2oc3cc(Cl)ccc3c(=O)c2Cc2ccccc2)C(C)C)cc1
  inhibition: Active
